The values below are quoted from earlier work in patent publication US20140228364A1, “Ophthalmic Compositions Comprising Prostaglandin F2 Alpha Derivatives and Hyaluronic Acid” (priority 2011, published 2014).

For the compound `CCCCC[C@H](O)/C=C/[C@H]1[C@H](O)CC(=O)[C@H]1C/C=C\CCCC(=O)O` [8-isoprostaglandin E2], the Solubility in water result was “almost insoluble in water”. With `CC(C)OC(=O)CCC/C=C\C[C@@H]1[C@@H](CC[C@@H](O)CCc2ccccc2)[C@H](O)C[C@@H]1O` [Latanoprost, isopropyl-(Z)-7-[(1R,2R,3R,5S)-3,5-dihydroxy-2-[(3R)-3-hydroxy-5-phenylpentyl]cyclopentyl]-5-heptenoate], the Solubility in water result is on record as “almost insoluble in water”. `CCNC(=O)CCC/C=C\C[C@@H]1[C@@H](/C=C/[C@@H](O)CCc2ccccc2)[C@H](O)C[C@@H]1O` [bimatoprost]: the Solubility in water result is given as “almost insoluble in water”. `CC(C)OC(=O)CCC/C=C\C[C@@H]1[C@@H](/C=C/C(F)(F)COc2ccccc2)[C@H](O)C[C@@H]1O` [tafluprost]: the Solubility in water result is given as “almost insoluble in water”. As for `CC(C)OC(=O)CCC/C=C\C[C@@H]1[C@@H](/C=C/[C@@H](O)COc2cccc(C(F)(F)F)c2)[C@H](O)C[C@@H]1O` [travoprost, 20-ethyl prostaglandin F2α-(+)-fluprostenol isopropyl ester], the Solubility in water result is “almost insoluble in water”. In the case of `CCCCCCCC(=O)CC[C@@H]1[C@@H](C/C=C\CCCC(=O)OC(C)C)[C@@H](O)C[C@H]1O` [unoprostone isopropyl, 13,14-dihydro-20-ethyl-15-ketoprostaglandin F2α-isopropylester], the Solubility in water entry is “almost insoluble in water”.
